Experimental data as given in PMC9995496, “A screen for MeCP2-TBL1 interaction inhibitors using a luminescence-based assay” (Scientific Reports, 2023).
Structures can show the parent of a compound that is named as a salt.

These molecules were tested on PRKACA-PRKAR2A interaction (SmBiT-PRKACA / LgBiT-PRKAR2A), protein kinase A. Details: 0.5 h, 20 µM; inhibitor.
Design: NanoLuc complementation counter-screen in cell extract, PRKACA with PRKAR2A, loss of luminescence, detects NanoLuc interference

Going from `Cc1cc(N2CCN([C@@H]3CN[C@H](C(=O)N4CCSC4)C3)CC2)n(-c2ccccc2)n1` [UM0141637:01, Teneligliptin hydrobromide] to `Cn1c(COP(=O)(NCCBr)NCCBr)cnc1[N+](=O)[O-]` [UM0141638:01, TH-302], the “Inh (PKA)” value rises from -1.766% to 1.841%.

Same assay, conditions: counter-screen for NanoLuc interference, 0.5 h, 20 µM, inhibitor, Inh (PKA)

Going from `N[C@@H](CC(=O)N1CCn2c(nnc2C(F)(F)F)C1)Cc1cc(F)c(F)cc1F` [UM0141674:01, Sitagliptin phosphate monohydrate] to `Cn1c(=O)cc(N2CCC[C@@H](N)C2)n(Cc2ccccc2C#N)c1=O` [UM0141676:01, Alogliptin (SYR-322)], the “Inh (PKA)” value rises from 0.152% to 0.7637%.

For `COC(=O)N[C@H](C(=O)N[C@@H](Cc1ccccc1)[C@@H](O)CN(Cc1ccc(-c2ccccn2)cc1)NC(=O)[C@@H](NC(=O)OC)C(C)(C)C)C(C)(C)C` [UM0141677:01, Atazanavir sulfate (BMS-232632-05)], the “Inh (PKA)” value was 2.404%.

Same assay, conditions: counter-screen for NanoLuc interference; 0.5 h, 20 µM; inhibitor

Going from `CCOC(=O)C1=CCCC[C@H]1S(=O)(=O)Nc1ccc(F)cc1Cl` [UM0141634:01, TAK-242] to `O=C(O)CC[C@H]1CC[C@@](c2cc(F)ccc2F)(S(=O)(=O)c2ccc(Cl)cc2)CC1` [UM0141661:01, MK-0752], the “Inh (PKA)” value falls from 47.57% to 5.084%.

Compared with `COc1cccc2c1c(O)c(C(=O)N(C)c1ccc(C(F)(F)F)cc1)c(=O)n2C` [UM0141635:01, Tasquinimod], `COc1ccc(C(=O)CC2(O)C(=O)Nc3c(Cl)ccc(Cl)c32)cc1` (stereo not drawn) [UM0141653:01, YK-4-279] is higher in “Inh (PKA)” value: 2.103% for the first, 4.248% for the second.

First: Fc1ccccc1-c1nc2ccn(Cc3ccc(-c4ccc(C(F)(F)F)cc4C(F)(F)F)nn3)cc-2n1 [UM0141636:01, Tegobuvir]
Second: NC(=O)[C@@H](CCC(F)(F)F)N(Cc1ccc(-c2ncon2)cc1F)S(=O)(=O)c1ccc(Cl)cc1 [UM0141668:01, BMS-708163 (Avagacestat)]
The “Inh (PKA)” value of the first is lower: 1.649% for the first, 25.28% for the second.

Going from `N=C1CCCN1Cc1[nH]c(=O)[nH]c(=O)c1Cl` [UM0141639:01, Tipiracil hydrochloride] to `Cn1c(=O)cc(N2CCC[C@@H](N)C2)n(Cc2cc(F)ccc2C#N)c1=O` [UM0141640:01, Trelagliptin], the “Inh (PKA)” value falls from 0.165% to -0.04176%.

Going from `CC(C)[C@]12O[C@H]1[C@@H]1O[C@]13[C@]1(O[C@H]1C[C@H]1C4=C(CC[C@@]13C)C(=O)OC4)[C@@H]2O` [UM0141641:01, Triptolide] to `CC(C)c1cc(CNc2nc(Nc3cc(C4CC4)[nH]n3)cc(N3CCN(C)CC3)n2)on1` [UM0141649:01, XL228], the “Inh (PKA)” value rises from 1.248% to 43.07%.

Compared with `Cc1ccc(-c2csc3ncnc(SCCC(=O)O)c23)cc1` [UM0141643:01, TTP 22], `Cc1cnc(Nc2ccc(F)cc2Cl)nc1-c1c[nH]c(C(=O)N[C@H](CO)c2cccc(Cl)c2)c1` [UM0141646:01, VX-11e] is higher in “Inh (PKA)” value: 12.61% for the first, 14.62% for the second.

Compared with `CCC1=C[C@@H]2CN(C1)Cc1c([nH]c3ccccc13)[C@@](C(=O)OC)(c1cc3c(cc1OC)N(C)[C@H]1[C@@](O)(C(=O)OC)[C@H](OC(C)=O)[C@]4(CC)C=CCN5CC[C@]31[C@@H]54)C2` [UM0141644:01, Vinorelbine ditartrate], `CCOc1cc(C(=O)N2CCC(N3CCN(C)CC3)CC2)ccc1Nc1ncc2c(n1)N(C1CCCC1)c1ccccc1C(=O)N2C` [UM0141651:01, XMD17-109] is higher in “Inh (PKA)” value: 3.937% for the first, 18.58% for the second.

Compared with `O=C(Nc1ccc(-c2ccnc(Nc3ccc(N4CCOCC4)cc3)n2)cc1)C1CCCN1` (stereo not drawn) [UM0141648:01, XL019], `CCOc1cc(N2CCC(O)CC2)ccc1Nc1ncc2c(n1)N(C)c1ccccc1C(=O)N2C` [UM0141652:01, XMD8-92] is higher in “Inh (PKA)” value: -3.897% for the first, 14.04% for the second.

Compared with `C[C@]1(c2nc3c(C(N)=O)cccc3[nH]2)CCCN1` [UM0141654:01, Veliparib dihydrochloride], `N[C@@H]1CCCN(c2c(/C=C3\SC(=O)NC3=O)cccc2-c2ccccc2)C1` [UM0141655:01, AZD1208] is higher in “Inh (PKA)” value: 0.673% for the first, 21.79% for the second.

First: CC(=O)O/N=C1\C(=O)N(Cc2cc(Cl)ccc2Cl)c2ccc(Cl)cc21 [UM0141658:01, LDN 57444]
Second: CC(C)C[C@H](NC(=O)CNC(=O)c1cc(Cl)ccc1Cl)B(O)O [UM0141663:01, MLN2238]
The “Inh (PKA)” value of the first is higher: 84.34% for the first, 0.9496% for the second.

Going from `Cc1ccc(/C=C2\CNC/C(=C\c3ccc(C)cc3)C2=O)cc1` [UM0141659:01, NSC 632839 hydrochloride] to `C[C@H](NC(=O)Cc1cc(F)cc(F)c1)C(=O)N[C@@H]1C(=O)N(C)c2ccccc2-c2ccccc21` [UM0141666:01, YO-01027 (Dibenzazepine, DBZ)], the “Inh (PKA)” value falls from 12.94% to 4.42%.

First: CC(C)(C(=O)NCC(F)(F)C(F)(F)F)C(=O)N[C@@H]1C(=O)Nc2ccccc2-c2ccccc21 [UM0141660:01, RO4929097]
Second: C[C@H](NC(=O)CCC(F)(F)F)C(=O)N[C@@H]1C(=O)N(CCO)c2ncccc2-c2ccccc21 [UM0141669:01, LY3039478]
The “Inh (PKA)” value of the first is higher: 10.15% for the first, -1.62% for the second.

First: CC(C)C[C@H](NC(=O)CNC(=O)c1cc(Cl)ccc1Cl)B1OC(=O)C(CC(=O)O)(CC(=O)O)O1 [UM0141662:01, MLN9708]
Second: CC(C)C[C@H](NC(=O)[C@@H](NC(=O)c1cccc(-c2ccccc2)n1)[C@@H](C)O)B(O)O [UM0141664:01, CEP-18770]
The “Inh (PKA)” value of the first is lower: -0.4944% for the first, 2.205% for the second.

Going from `COc1ccc(C[C@H](NC(=O)[C@H](C)NC(=O)CN2CCOCC2)C(=O)N[C@@H](Cc2ccccc2)C(=O)[C@@]2(C)CO2)cc1` [UM0141665:01, ONX-0914 (PR-957)] to `C[C@H](NC(=O)[C@@H](O)c1cc(F)cc(F)c1)C(=O)N[C@@H]1C(=O)N(C)c2ccccc2-c2ccccc21` [UM0141667:01, LY-411575], the “Inh (PKA)” value rises from 2.946% to 13.09%.

First: CC(C)(C)OC(=O)N[C@H]1CCCCC/C=C\[C@@H]2C[C@@]2(C(=O)NS(=O)(=O)C2CC2)NC(=O)[C@@H]2C[C@@H](OC(=O)N3Cc4cccc(F)c4C3)CN2C1=O [UM0141670:01, Danoprevir (RG7227)]
Second: CCC[C@H](NC(=O)[C@@H]1[C@H]2CCC[C@H]2CN1C(=O)[C@@H](NC(=O)[C@@H](NC(=O)c1cnccn1)C1CCCCC1)C(C)(C)C)C(=O)C(=O)NC1CC1 [UM0141671:01, Telaprevir (VX-950)]
The “Inh (PKA)” value of the first is higher: 3.662% for the first, 3.048% for the second.

Going from `CC(C)(C)C#Cc1cc(N(C(=O)[C@H]2CC[C@H](C)CC2)[C@H]2CC[C@H](O)CC2)c(C(=O)O)s1` [UM0141672:01, VX-222 (VCH-222, Lomibuvir)] to `N#C[C@@H]1CCCN1C(=O)CNC12CC3CC(CC(O)(C3)C1)C2` [UM0141675:01, Vildagliptin (LAF-237)], the “Inh (PKA)” value falls from 8.385% to 0.7818%.

First: CC#CCn1c(N2CCC[C@@H](N)C2)nc2c1c(=O)n(Cc1nc(C)c3ccccc3n1)c(=O)n2C [UM0141673:01, Linagliptin (BI-1356)]
Second: CNC(=O)[C@@H](NC(=O)[C@H](CC(C)C)[C@H](O)C(=O)NO)C(C)(C)C [UM0141678:01, Marimastat]
The “Inh (PKA)” value of the first is higher: 1.695% for the first, 0.03588% for the second.
